From US6407257B1, “Derivatives of erythromycin, their preparation process and their use as medicaments” (Aventis Pharma S.A., priority 1998, dated 2002) come the findings set out here.

The subject of one test is Streptococcus pyogenes. The test can be described thus: Method of dilutions in liquid medium (minimal inhibitory concentration). It counts as cell-based. The conditions noted are these: incubation 24 hours at 37° C., growth inhibition by transillumination. As for the experimental part: (§1) A—Method of Dilutions in Liquid Medium A series of tubes were prepared in which the same quantity of nutritive sterile medium is distributed. Increasing quantities of the product to be studied are distributed into each tube, then each tube is sown with a bacterial strain. After incubation for 24 hours in a heating chamber at 37° C., the growth inhibition is evaluated by transillumination, which allows the minimal inhibitory concentrations to be determined, expressed in micrograms/cm^3. The following results were obtained

A further test concerns Streptococcus pneumoniae. Described as above. It counts as cell-based. The conditions noted are these: incubation 24 hours at 37° C., growth inhibition by transillumination. The method, then:
as §1

For “2-Fluoro-11,12-dideoxy-3-de[(2,6-dideoxy-3-C-methyl-3-0-methyl-alpha-L-ribohexopyranosyl)oxy]-6-0-methyl-3-oxo-12,11-[oxycarbonyl[[4-[4-(4-aminophenyl)-1H-imidazol-1-yl]butyl]imino]]-eryrthromycin [EX. 2]”, the minimal inhibitory concentrations in the test with Streptococcus pyogenes is given as 0.3 micrograms/cm^3; in the test on Streptococcus pneumoniae, 0.150 micrograms/cm^3.
Regarding `CCC1OC(=O)C(C)C(=O)C(C)C(OC2OC(C)CC(N(C)C)C2O)C(C)(OC)CC(C)C(=O)C(C)C2N(CCCCn3cnc(-c4ccc(N)cc4)c3)C(=O)OC12C` [EX. 1, 11,12-Dideoxy-3-de[(2,6-dideoxy-3-C-methyl-3-0-methyl-alpha-L-ribohexopyranosyl)oxy]-6-0-methyl-3-oxo-12,11-[oxycarbonyl-[[4-[4-(4-aminophenyl)-1H-imidazol-1-yl]butyl]imino]]-eryrthromycin], the minimal inhibitory concentrations in the test on Streptococcus pyogenes was 2.5 micrograms/cm^3; in the test on Streptococcus pneumoniae, 1.2 micrograms/cm^3.
